Source: patent US10202413B2, “Neuroactive enantiomeric 15-, 16- and 17-substituted steroids as modulators for GABA type-A receptors” (priority 2013, dated 2019)
Where two headings read alike, the source gives them in different places. Marks after values point to notes of the source that are not given here.

Legend:
mice = assay: Mouse duration of anesthesia (LRR) after tail vein injection; format: in vivo
Description: The compounds were dissolved in 22.5% aqueous 2-(hydroxypropyl)-β-cyclodextrin. For compound 28, serial dilutions of a 8 mg/kg stock solution with 0.9% saline were made to obtain the lower doses tested.
At a dose of 8 mg/kg, compound MQ-35 caused LRR of about 3 minutes and at a dose of 16 mg/kg duration of LRR was increased to about 7 minutes.
At 4 mg/kg, LRR induced by KK-122 lasted about 5 minutes and at a dose of 8 mg/kg LRR lasted for about 9 minutes. For all three compounds, the onset of anesthesia was immediate (i.e., less than 30 seconds) and recovery was characterized by a rapid progression over 1-2 minutes from an initial return of leg movement followed by righting and subsequent walking around the cage.

[1] = molecular target: T1, rat α1β2γ2L type GABAA receptors expressed in Xenopus laevis oocytes (Rattus norvegicus, UniProt P18508+P62813+P63138, INS375LLRMFSFK); assay: Oocyte electrophysiology: potentiation of chloride currents mediated by 2 μM GABA, and direct gating; format: cell-based; conditions: ± SEM (N≥4); for ratio of currents measured in the presence/absence of added compound, 0.1 μM: 0.1 μM compound; for ratio of currents measured in the presence/absence of added compound, 0.1 μM / ratio of currents measured in the presence/absence of added compound, 1.0 μM / ratio of currents measured in the presence/absence of added compound, 10 μM: 2 μM GABA; for ratio of currents measured in the presence/absence of added compound, 1.0 μM: 1.0 μM compound; for ratio of currents measured in the presence/absence of added compound, 10 μM: 10 μM compound; for (gating) 10 μM: ratio of compound only current/GABA current: direct current gated by 10 μM compound in the absence of GABA
T1 construct: expressed in transfected cells; host or cells: Xenopus laevis oocytes
Description: The compounds of the present disclosure were evaluated for the ability to potentiate chloride currents mediated by 2 μM GABA at rat α1β2γ2L type GABAA receptors expressed in Xenopus laevis oocytes and the results are shown in Table 2.
The GABA concentration used for the control response was 2 μM. Each compound was evaluated on at least four different oocytes at the concentrations indicated, and the results reported are the ratio of currents measured in the presence/absence of added compound. Gating represents direct current gated by 10 μM compound in the absence of GABA, and this current is reported as the ratio of compound only current/[…] current. Error limits are calculated as standard error of the mean (N≥4). Receptor expression and whole-cell and single-channel recordings were carried out as described previously (see Jiang, et al., Neurosteroid analogues. 9. Conformationally constrained pregnanes: structure-activity studies of 13,24-cyclo-18,21-dinorcholane analogues of the GABA modulatory and anesthetic steroids (3α,5α)- and (3α,5β)-3-hydroxypregnan-20-one. J. Med. Chem. 2003, 46, 5334-5348).

[2] = molecular target: picrotoxin binding site on GABAA receptors; assay: [35S]-TBPS displacement (inhibition of [35S]-TBPS binding); conditions: non-competitive displacement of [35S]-TBPS; ± standard error of the mean
Description: The IC50 values for the compounds of the examples as non-competitive displacers of [^35S]-TBPS from the picrotoxin binding site on GABAA receptors are reported in Table 1.
Results presented are from duplicate experiments performed in triplicate. Error limits are calculated as standard error of the mean. Methods used are known in the art (see, e.g., Jiang, et al., Neurosteroid analogues. 9. Conformationally constrained pregnanes: structure-activity studies of 13,24-cyclo-18,21-dinorcholane analogues of the GABA modulatory and anesthetic steroids (3α,5α)- and (3α,5β)-3-hydroxypregnan-20-one. J. Med. Chem. 2003, 46, 5334-5348).

Tadpole = Tadpole loss of righting (LRR) and loss of swimming (LSR) reflexes; format: in vivo; conditions: for EC50: ± SEM
Source text: Table 3 discloses the anesthetic effects of the compounds of the present disclosure. In particular, the anesthetic effect of the compounds of the present disclosure on Loss of Righting Reflex (LRR) and Loss of Swimming Reflex (LSR).
Methods used are known in the art (see, e.g., Jiang, et al., Neurosteroid analogues. 9. Conformationally constrained pregnanes: structure-activity studies of 13,24-cyclo-18,21-dinorcholane analogues of the GABA modulatory and anesthetic steroids (3α,5α)- and (3α,5β)-3-hydroxypregnan-20-one. J. Med. Chem. 2003, 46, 5334-5348). Error limits are calculated as standard error of the mean (N=10 or more animals at each of five or more different concentrations).

[3] = loss of righting reflex, read-out: Tadpole LRR EC50
[4] = loss of swimming reflex, read-out: Tadpole LSR EC50
[5] = concentration of 3 μM, number of 10 tadpoles

T1 sequence (P62813 28-455, stated change not applied): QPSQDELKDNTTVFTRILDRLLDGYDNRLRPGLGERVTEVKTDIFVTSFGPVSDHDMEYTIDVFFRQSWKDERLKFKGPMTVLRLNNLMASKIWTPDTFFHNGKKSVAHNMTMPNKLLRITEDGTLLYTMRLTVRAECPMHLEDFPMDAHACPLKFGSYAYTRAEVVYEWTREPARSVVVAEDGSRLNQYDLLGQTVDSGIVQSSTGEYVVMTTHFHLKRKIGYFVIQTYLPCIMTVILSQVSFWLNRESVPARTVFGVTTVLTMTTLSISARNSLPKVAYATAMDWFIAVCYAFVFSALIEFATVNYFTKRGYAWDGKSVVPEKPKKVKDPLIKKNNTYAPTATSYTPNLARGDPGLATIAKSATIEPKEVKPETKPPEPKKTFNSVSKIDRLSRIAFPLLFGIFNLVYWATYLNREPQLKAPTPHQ
T1 sequence (P63138 26-474, stated change not applied): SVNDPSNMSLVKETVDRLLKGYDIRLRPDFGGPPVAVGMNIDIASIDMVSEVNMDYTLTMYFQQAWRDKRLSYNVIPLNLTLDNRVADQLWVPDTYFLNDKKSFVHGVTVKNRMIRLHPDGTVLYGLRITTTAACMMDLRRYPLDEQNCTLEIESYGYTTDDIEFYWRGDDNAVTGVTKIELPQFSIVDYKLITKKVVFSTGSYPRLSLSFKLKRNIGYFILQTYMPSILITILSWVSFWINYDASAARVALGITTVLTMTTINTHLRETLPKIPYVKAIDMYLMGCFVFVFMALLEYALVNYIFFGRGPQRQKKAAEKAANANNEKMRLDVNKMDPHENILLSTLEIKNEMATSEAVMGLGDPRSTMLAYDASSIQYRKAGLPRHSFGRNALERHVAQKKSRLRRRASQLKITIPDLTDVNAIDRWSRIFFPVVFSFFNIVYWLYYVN
T1 sequence (P18508 with tags, fused parts or gaps INS375LLRMFSFK): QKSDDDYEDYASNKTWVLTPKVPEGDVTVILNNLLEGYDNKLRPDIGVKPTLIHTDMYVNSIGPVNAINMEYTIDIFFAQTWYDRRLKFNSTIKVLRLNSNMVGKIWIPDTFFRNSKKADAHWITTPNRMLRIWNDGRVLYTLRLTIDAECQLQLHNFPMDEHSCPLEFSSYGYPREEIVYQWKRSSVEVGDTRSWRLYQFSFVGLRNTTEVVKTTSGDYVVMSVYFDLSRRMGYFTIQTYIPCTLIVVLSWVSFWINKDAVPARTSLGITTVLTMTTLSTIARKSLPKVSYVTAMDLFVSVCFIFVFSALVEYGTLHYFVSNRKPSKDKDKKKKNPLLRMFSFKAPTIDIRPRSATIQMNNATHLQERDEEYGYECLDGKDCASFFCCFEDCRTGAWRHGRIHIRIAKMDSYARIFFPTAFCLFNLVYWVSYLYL

SMILES | duration of anesthesia (LRR) (mice; 16 mg/kg) | duration of anesthesia (LRR) (mice; 8 mg/kg) | ratio of currents measured in the presence/absence of added compound, 0.1 μM [1] | ratio of currents measured in the presence/absence of added compound, 1.0 μM [1] | ratio of currents measured in the presence/absence of added compound, 10 μM [1] | (gating) 10 μM: ratio of compound only current/GABA current [1] | IC50 [2] [nM] | melting point [°C] | EC50 (Tadpole; [3]) [nM] | EC50 (Tadpole; [4]) [nM] | tadpoles that lost LRR (Tadpole; [5]) | tadpoles that lost LSR (Tadpole; [5]) | duration of anesthesia (LRR) (mice; 1 mg/kg) | duration of anesthesia (LRR) (mice; 4 mg/kg) | duration of anesthesia (LRR) (mice; threshold dose of 2 mg/kg)
CC(=O)[C@H]1CC[C@H]2[C@@H]3CC[C@H]4C[C@H](O)CC[C@]4(C)[C@H]3C(=O)C[C@]12C [alphaxalone, reference compound] | about 4 minutes |  |  |  |  |  |  |  |  |  |  |  |  |  | 
C[C@@]12CC[C@@H]3[C@H](CC[C@@H]4C[C@@H](O)CC[C@]43C)[C@H]1CC(=O)C2 [MQ-35, (3β,5β,8α,9β,10α,13α,14β)-3-Hydroxyandrostan-16-one] | about 7 minutes | about 3 minutes | 1.42 ± 0.02 | 7.72 ± 0.39 | 34.70 ± 1.69 | 0.15 ± 0.04 | 81 ± 8 | 152 to 153 | 550 ± 90 | 1730 ± 40 |  |  |  |  | 
CO[C@H]1[C@H]2CC[C@H]3[C@@H](CC[C@@]4(C)C(=O)CC[C@H]34)[C@]2(C)CC[C@@H]1O [KK-117, (3β,4α,5β,8α,9β,10α,13α,14β)-3-Hydroxy-4-methoxyandrostan-17-one] |  |  | 1.21 ± 0.02 | 3.67 ± 0.33 | 12.21 ± 1.26 | 0.05 ± 0.03 | 198 ± 25 | 215 to 218 | 590 ± 70 | 2940 |  |  |  |  | 
CC(=O)[C@@H]1C[C@@H]2[C@H]3CC[C@@H]4C[C@@H](O)CC[C@@]4(C)[C@@H]3CC[C@@]2(C)C1 [KK-135, (3β,5β,8α,9β,10α,13α,14β,16α)-16-Acetylandrostan-3-ol] |  |  | 1.17 ± 0.09 | 3.26 ± 0.31 | 6.21 ± 0.31 | −0.04 ± 0.06 | 184 ± 11 | 169 to 172 |  |  | 10/10^a | 10/10^a |  |  | 
C[C@@]12CC[C@H]3[C@@H]4CC[C@H](O)C[C@H]4CC[C@@H]3[C@H]1CC(=O)C2 [KK-103] |  |  | 0.97 ± 0.02 | 2.43 ± 0.02 | 10.52 ± 0.61 | 0.02 ± 0.01 | 238 ± 21 | 160 to 162 | 1160 ± 210 | 5480 ± 120 |  |  |  |  | 
C[C@@]12CC[C@H](O)C[C@H]1CC[C@@H]1[C@H]3CC(=O)C[C@@H]3CC[C@H]12 [KK-114] |  |  | 0.93 ± 0.02 | 1.13 ± 0.02 | 3.56 ± 0.15 | 0.01 ± 0.02 | 1520 | 174 to 177 | 3640 ± 2170 | > 10000 |  |  |  |  | 
CO[C@H]1[C@H]2CC[C@@H]3[C@H]4CC(=O)C[C@]4(C)CC[C@H]3[C@]2(C)CC[C@@H]1O [KK-122, (3β,4α,5β,8α,9β,10α,3α,14β)-3-Hydroxy-4-methoxyandrostan-16-one] |  | about 9 minutes | 1.41 ± 0.07 | 6.48 ± 0.40 | 16.00 ± 2.21 | 0.08 ± 0.03 | 83 ± 11 | 198 to 200 | 340 ± 400 | 1730 ± 30 |  |  | no LRR was observed | about 5 minutes | about 1 minute
C[C@@]12CC[C@H](O)C[C@@H]1CC[C@H]1[C@H]2CC[C@@]2(C)C=C(C#N)C[C@H]12 [KK-136, (3β,5α,8α,9β,10α,13α,14β)-3-Hydroxyandrost-16-ene-16-carbonitrile] |  |  | 0.98 ± 0.02 | 1.98 ± 0.14 | 10.04 ± 1.26 | 0.29 ± 0.25 | 335 ± 27 | 195 to 197 | 480 ± 20 | 1730 ± 30 |  |  |  |  | 
